Data taken from patent US10617679B2, “Deuterated compounds and medical uses thereof” (JINGLUWEIDAI INFORMATION CONSULTING SERVICE (BEIJING) CO. …, priority 2016, dated 2020).

Legend:
[1] = tested on: rat chronic sciatic nerve compression neuralgia model; test: Analgesic effects of intragastric administration in a rat chronic sciatic nerve compression neuralgia model; assay type: in vivo, SD rats; conditions: pain threshold 1 hour after administration
Method: SD rats (male, weight 160-180 g) were anesthetized using sodium pentobarbital (40 mg/kg), of which the sciatic nerves were separated in the middle segment of the right hind limbs. In the anterior segment of the sciatic nerve to be bifurcated, the sciatic nerve was separated from the surrounding tissue using a sterile glass hook. Four rings were loosely ligated with sterile chrome gut (No. 4, 0.15 mm in diameter) by an interval of 1 to 2 mm. Topically sprinkled with penicillin powder. The muscle tissue and skin were sutured. The rats were placed in a cage with cork dust. In the sham surgery group, the sciatic nerve was only exposed, and the other treatments were the same as described above. The rats after surgery were placed in a metal cage. […] The weight of the filament was recorded and set to be the threshold (in g). Meanwhile, the number of foot-lifting response to the 10 stimulations of the fiber filaments of different weights was recorded, and the highest threshold was set at 26 g.
5-6 rats in each group were intragastrically administered and the pain thresholds were measured 1 hour after administration. Statistical analysis of the thresholds was performed using non-parametric Wilcoxon 2-Sample Test and Kruskal-Wallis Test, and the data was analyzed with SASS data processing software. Analgesic percent (%)=(pain threshold after drug treatment−pain threshold before drug treatment)/(maximal analgesia threshold−pain threshold before drug treatment)[…].

rat formalin model = test: Analgesic effects of intragastric administration in a rat formalin model; assay type: in vivo, SD rats; conditions: mean ± SD; for Reaction time for phase I: licking time 0-5 min after formalin; for Reaction time for Phase II: licking time 15-30 min after formalin
Method: SD rats (male, weight 160-180 g) were randomly divided into groups with 6 rats in each group. After the rats were intragastrically administered different doses separately, they were placed in PVC observation boxes for habituation. After 30 min, the rats were injected subcutaneously with 20 μL of 2.7% formalin solution into the plantar surface of the left hind paws, and quickly put back in the PVC observation boxes for observation. The length of time the rats spent licking the injected-formalin paws at the early response (0-5 min, phase I) and the late response (15-30 min, Phase II) was recorded, and the analgesic activities of the test compounds were evaluated according to the length of time the rats spent licking during the period of observation. The experimental data were expressed as mean±standard deviation. The shorter the licking time, the better the analgesic effect of the compound.

heart rate in rats = test: Effects on heart rate in rats; assay type: in vivo, SD rats
Method: (§1) SD rats (male, weight 160-180 g) were fasted for 12 hours before administration but had free access to drinking water. The rats were randomly divided into groups. They were anesthetized with an intraperitoneal injection of 50-60 mg/kg dose of sodium pentobarbital. Each rat was fixed on the back on the surgical table. The skin was cut from the center of the neck, and an incision of about 2.5 cm was made. The subcutaneous tissue and the median muscle were separated; the trachea was fully exposed; and the endotracheal intubation was performed. The subcutaneous tissue was separated from front to back on the right side; the right common carotid artery, the vagus nerve and the sympathetic nerve were exposed; and the carotid artery cannulation was performed. Finally, the endotracheal tube and the carotid artery cannula were respectively connected to a respiration transducer and a blood pressure transducer, and then connected to a multifunctional physiological recorder. At 30 minutes after surgery, the rats were intragastrically administrated. Heart rate and blood pressure were measured at different time points after administration.

[2] = tested on: oxycodone-induced place preference in rats; test: Inhibition of oxycodone-induced place preference in rats; assay type: in vivo, SD rats; conditions: day 10, within 15 minutes
Method: SD rats (male, weight 160-180 g) were placed in conditioned place preference (CPP) training boxes, where the partition door between the boxes was open. Time the rats spent in each of the boxes was recorded within 15 min in order to determine the natural tendency of the rats. The rats were then randomly divided into groups with 10 rats in each group according to the amount of time spent in the white box. The white box was a drug box, and the black box was a box with the absence of the drug. After intragastric administration with a test compound for 40 minutes, the rats were injected subcutaneously with oxycodone (2.5 mg/kg, s.c.) or saline, and immediately placed in the white box or the black box to be trained for 45 minutes, once a day for 9 consecutive days. On the 10th day, the rats were placed in the training boxes with the partition door open. The time the rats spent in the white box was recorded within 15 minutes to evaluate effects on place preference in the rats.

blood pressure in rats = test: Effects on blood pressure in rats; assay type: in vivo, SD rats
Method: as §1

Wistar rats = test: Evaluation of subacute toxicity (14 days, intragastric); assay type: in vivo; conditions: 40 mg/kg intragastric once a day for 14 days
Method: Male Wistar rats were randomly divided into groups with 10 rats in each group and weighed. A certain concentration of a test sample was ground and suspended in a 0.5% sodium carboxymethyl cellulose solution. The sodium carboxymethyl cellulose suspension containing 40 mg/kg of the test compound and a blank sodium carboxymethyl cellulose suspension as a control were intragastrically administered, once a day for 14 consecutive days. After the last administration, the rats were fasted but had free access to drinking water for 12 hours, and then anesthetized. Their blood samples were obtained from the abdominal aortas. According to SOPB093 “Standard Operating Procedures for Serum Preparation” in National Beijing Center for Drug Safety Evaluation and Research, serum was prepared for the determination of blood biochemical and immunological indicators; according to SOPB032 “Preparation of vacuum tubes with EDTA anticoagulation”, EDTA anticoagulation was prepared for the general blood routine tests.

[3] = 20 mg/kg intragastric, time point 0
[4] = 20 mg/kg intragastric, time point 30
[5] = 20 mg/kg intragastric, time point 60
[6] = 20 mg/kg intragastric, time point 90
[7] = 20 mg/kg intragastric, time point 120
[8] = 20 mg/kg intragastric, time point 180
[9] = 40 mg/kg intragastric, time point 0
[10] = 40 mg/kg intragastric, time point 30
[11] = 40 mg/kg intragastric, time point 60
[12] = 40 mg/kg intragastric, time point 90
[13] = 40 mg/kg intragastric, time point 120
[14] = 40 mg/kg intragastric, time point 180

COc1cc2c(cc1OC)[C@@H]1Cc3ccc(OC)c(OC)c3CN1CC2 [THP, L-tetrahydropalmatine, reference compound]
Analgesic percent ([1]; 20 mg/kg intragastric): 27.41% | Analgesic percent ([1]; 40 mg/kg intragastric): 68.36% | Reaction time for phase I (rat formalin model; 20 mg/kg intragastric): 86.8 ± 37.3 s | Reaction time for Phase II (rat formalin model; 20 mg/kg intragastric): 185.2 ± 39.7 s | Reaction time for phase I (rat formalin model; 40 mg/kg intragastric): 40.6 ± 28.3 s | Reaction time for Phase II (rat formalin model; 40 mg/kg intragastric): 97.5 ± 33.6 s | Heart rate (heart rate in rats; [3]): 399.3 ± 32.6 BTM | Heart rate (heart rate in rats; [4]): 377.1 ± 52.3 BTM | Heart rate (heart rate in rats; [5]): 387.3 ± 50.5 BTM | Heart rate (heart rate in rats; [6]): 399.8 ± 60.7 BTM | Heart rate (heart rate in rats; [7]): 408.8 ± 55.9 BTM | Heart rate (heart rate in rats; [8]): 429.8 ± 25.5 BTM | Heart rate (heart rate in rats; [9]): 391.8 ± 32.9 BTM | Heart rate (heart rate in rats; [10]): 372.1 ± 46.5 BTM | Heart rate (heart rate in rats; [11]): 329.0 ± 63.2 BTM | Heart rate (heart rate in rats; [12]): 340.0 ± 71.4 BTM | Heart rate (heart rate in rats; [13]): 372.0 ± 64.6 BTM | Heart rate (heart rate in rats; [14]): 400.0 ± 30.5 BTM | Time spent in the drug box (Mean ± S) ([2]; test dose 10 mg/kg intragastric + oxycodone 2.5 mg/kg s.c.): 253.23 ± 77.14 s | Time spent in the drug box (Mean ± S) ([2]; test dose 20 mg/kg intragastric + oxycodone 2.5 mg/kg s.c.): 157.04 ± 60.6 s | Blood pressure (blood pressure in rats; [3]): 111.5 ± 11.5 mmHg | Blood pressure (blood pressure in rats; [4]): 109.4 ± 20.6 mmHg | Blood pressure (blood pressure in rats; [5]): 105.00 ± 28.21 mmHg | Blood pressure (blood pressure in rats; [6]): 105.1 ± 20.0 mmHg | Blood pressure (blood pressure in rats; [7]): 112.7 ± 19.3 mmHg | Blood pressure (blood pressure in rats; [8]): 113.3 ± 18.3 mmHg | Blood pressure (blood pressure in rats; [9]): 114.2 ± 14.6 mmHg | Blood pressure (blood pressure in rats; [10]): 98.0 ± 30.1 mmHg | Blood pressure (blood pressure in rats; [11]): 81.63 ± 28.8 mmHg | Blood pressure (blood pressure in rats; [12]): 79.00 ± 28.2 mmHg | Blood pressure (blood pressure in rats; [13]): 91.6 ± 24.7 mmHg | Blood pressure (blood pressure in rats; [14]): 97.3 ± 14.5 mmHg | ALT (Wistar rats; rat): 160.0 ± 70.6 U/L | AST (Wistar rats; rat): 216.8 ± 91.6 U/L | histopathological examination of liver (Wistar rats; result in words): vacuolar degeneration of hepatocytes | plasma ALT and AST versus control group (Wistar rats; result in words): significant increase
